According to ChEMBL document CHEMBL1201862, “PubChem BioAssay data set” (2004):
Activity calls are given as the source filed them.

How the values were obtained:
Type in all cases: functional
[1] = target: T1, Rac GTPase-activating protein 1 (Homo sapiens, UniProt Q9H0H5); test: blockers of MgcRacGAP-driven Rac1 GTP hydrolysis – biochemical, ADP Hunter fluorescence, primary and confirmatory, confirmation (AID 624330)
T1 sequence (Q9H0H5 whole entry): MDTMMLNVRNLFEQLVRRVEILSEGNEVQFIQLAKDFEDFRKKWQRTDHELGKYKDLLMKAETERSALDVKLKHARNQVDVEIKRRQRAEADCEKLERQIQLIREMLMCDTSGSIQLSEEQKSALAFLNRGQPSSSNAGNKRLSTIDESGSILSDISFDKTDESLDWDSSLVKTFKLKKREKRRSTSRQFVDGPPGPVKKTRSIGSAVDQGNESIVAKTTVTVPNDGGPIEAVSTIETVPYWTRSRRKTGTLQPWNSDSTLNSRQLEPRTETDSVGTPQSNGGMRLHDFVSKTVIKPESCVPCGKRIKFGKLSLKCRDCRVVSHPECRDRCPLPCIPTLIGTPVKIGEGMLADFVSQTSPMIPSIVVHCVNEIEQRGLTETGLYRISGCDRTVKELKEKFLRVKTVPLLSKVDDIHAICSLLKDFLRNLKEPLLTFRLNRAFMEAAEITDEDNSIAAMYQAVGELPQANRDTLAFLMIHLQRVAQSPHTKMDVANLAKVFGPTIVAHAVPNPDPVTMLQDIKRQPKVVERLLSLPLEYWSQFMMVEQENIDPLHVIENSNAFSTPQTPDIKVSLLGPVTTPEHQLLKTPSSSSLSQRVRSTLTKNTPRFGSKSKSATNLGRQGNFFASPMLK

[2] = target: T2, Sentrin-specific protease 7 (Homo sapiens, UniProt Q9BQF6);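 also: Luminescence-based dose-response confirmation of ultra-high-throughput screening hits, measuring inhibition of SENP7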
T2 sequence (Q9BQF6 whole entry): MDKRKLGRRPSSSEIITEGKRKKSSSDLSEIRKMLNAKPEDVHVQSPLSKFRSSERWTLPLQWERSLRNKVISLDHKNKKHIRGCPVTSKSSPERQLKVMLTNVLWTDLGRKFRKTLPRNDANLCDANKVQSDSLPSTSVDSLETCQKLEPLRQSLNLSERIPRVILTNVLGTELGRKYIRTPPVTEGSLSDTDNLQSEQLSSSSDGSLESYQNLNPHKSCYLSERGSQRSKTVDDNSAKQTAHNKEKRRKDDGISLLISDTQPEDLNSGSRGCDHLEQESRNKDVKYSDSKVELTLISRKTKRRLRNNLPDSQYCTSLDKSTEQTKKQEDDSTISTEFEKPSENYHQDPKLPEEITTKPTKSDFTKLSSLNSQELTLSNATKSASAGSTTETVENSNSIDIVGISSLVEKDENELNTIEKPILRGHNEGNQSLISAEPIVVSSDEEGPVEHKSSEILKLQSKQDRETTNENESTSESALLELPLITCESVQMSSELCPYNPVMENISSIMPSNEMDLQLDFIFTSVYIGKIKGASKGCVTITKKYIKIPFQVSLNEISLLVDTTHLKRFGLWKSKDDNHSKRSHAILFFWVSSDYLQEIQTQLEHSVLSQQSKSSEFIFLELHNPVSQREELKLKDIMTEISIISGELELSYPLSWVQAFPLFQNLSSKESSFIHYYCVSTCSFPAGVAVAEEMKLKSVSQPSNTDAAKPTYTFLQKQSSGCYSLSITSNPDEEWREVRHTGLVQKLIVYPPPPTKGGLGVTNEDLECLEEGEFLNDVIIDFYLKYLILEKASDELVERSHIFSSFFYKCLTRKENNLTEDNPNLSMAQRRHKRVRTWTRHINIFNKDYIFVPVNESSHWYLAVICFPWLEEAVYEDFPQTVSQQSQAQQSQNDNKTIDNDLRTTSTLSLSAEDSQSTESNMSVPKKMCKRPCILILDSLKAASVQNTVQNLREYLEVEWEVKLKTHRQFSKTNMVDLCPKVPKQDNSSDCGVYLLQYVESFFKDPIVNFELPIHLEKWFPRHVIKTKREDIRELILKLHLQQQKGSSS

[3] = target: Dual specificity mitogen-activated protein kinase kinase 1 (Homo sapiens, UniProt Q02750); test: Navigating the Kinome. Panel member name: MAP2K1
Sequence of Dual specificity mitogen-activated protein kinase kinase 1 (Q02750 whole entry): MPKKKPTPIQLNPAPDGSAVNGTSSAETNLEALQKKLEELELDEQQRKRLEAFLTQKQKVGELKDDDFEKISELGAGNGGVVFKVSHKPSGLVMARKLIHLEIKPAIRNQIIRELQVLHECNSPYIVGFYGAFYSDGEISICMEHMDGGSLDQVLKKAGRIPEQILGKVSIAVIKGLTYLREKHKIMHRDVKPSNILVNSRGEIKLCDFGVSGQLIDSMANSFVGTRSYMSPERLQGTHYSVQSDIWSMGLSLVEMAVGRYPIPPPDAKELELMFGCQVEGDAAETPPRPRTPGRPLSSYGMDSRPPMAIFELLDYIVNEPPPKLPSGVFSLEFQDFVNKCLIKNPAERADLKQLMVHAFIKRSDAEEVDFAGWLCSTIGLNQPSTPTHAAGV

[4] = target: T3, Tyrosine-protein kinase receptor TYRO3 (Homo sapiens, UniProt Q06418);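 also: TYRO3 value obtained as one member of a kinome-wide profiling panel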
T3 sequence (Q06418 whole entry): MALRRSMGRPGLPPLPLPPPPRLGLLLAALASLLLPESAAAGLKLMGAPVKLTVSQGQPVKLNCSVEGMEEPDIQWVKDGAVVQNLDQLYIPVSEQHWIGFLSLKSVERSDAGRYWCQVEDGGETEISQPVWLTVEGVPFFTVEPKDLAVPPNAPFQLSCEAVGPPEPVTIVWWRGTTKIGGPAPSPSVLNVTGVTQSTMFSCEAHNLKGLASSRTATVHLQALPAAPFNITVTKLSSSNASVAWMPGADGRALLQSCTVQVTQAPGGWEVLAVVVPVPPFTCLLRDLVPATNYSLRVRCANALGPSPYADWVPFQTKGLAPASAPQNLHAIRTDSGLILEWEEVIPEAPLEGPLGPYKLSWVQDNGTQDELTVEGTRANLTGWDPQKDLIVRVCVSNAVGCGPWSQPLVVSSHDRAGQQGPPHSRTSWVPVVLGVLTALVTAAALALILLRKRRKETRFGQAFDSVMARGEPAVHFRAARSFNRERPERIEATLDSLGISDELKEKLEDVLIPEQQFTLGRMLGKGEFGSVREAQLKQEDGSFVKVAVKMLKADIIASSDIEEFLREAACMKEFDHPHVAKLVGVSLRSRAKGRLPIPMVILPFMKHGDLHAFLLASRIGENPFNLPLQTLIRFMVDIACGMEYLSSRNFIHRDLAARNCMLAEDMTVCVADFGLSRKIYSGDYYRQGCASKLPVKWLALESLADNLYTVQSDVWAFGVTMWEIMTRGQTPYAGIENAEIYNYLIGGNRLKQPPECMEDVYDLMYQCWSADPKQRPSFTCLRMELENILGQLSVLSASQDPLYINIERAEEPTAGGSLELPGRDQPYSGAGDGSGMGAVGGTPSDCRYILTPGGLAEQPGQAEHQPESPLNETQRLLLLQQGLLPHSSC

[5] = target: Fibroblast growth factor receptor 1 (Homo sapiens, UniProt P11362)
Sequence of Fibroblast growth factor receptor 1 (P11362 whole entry): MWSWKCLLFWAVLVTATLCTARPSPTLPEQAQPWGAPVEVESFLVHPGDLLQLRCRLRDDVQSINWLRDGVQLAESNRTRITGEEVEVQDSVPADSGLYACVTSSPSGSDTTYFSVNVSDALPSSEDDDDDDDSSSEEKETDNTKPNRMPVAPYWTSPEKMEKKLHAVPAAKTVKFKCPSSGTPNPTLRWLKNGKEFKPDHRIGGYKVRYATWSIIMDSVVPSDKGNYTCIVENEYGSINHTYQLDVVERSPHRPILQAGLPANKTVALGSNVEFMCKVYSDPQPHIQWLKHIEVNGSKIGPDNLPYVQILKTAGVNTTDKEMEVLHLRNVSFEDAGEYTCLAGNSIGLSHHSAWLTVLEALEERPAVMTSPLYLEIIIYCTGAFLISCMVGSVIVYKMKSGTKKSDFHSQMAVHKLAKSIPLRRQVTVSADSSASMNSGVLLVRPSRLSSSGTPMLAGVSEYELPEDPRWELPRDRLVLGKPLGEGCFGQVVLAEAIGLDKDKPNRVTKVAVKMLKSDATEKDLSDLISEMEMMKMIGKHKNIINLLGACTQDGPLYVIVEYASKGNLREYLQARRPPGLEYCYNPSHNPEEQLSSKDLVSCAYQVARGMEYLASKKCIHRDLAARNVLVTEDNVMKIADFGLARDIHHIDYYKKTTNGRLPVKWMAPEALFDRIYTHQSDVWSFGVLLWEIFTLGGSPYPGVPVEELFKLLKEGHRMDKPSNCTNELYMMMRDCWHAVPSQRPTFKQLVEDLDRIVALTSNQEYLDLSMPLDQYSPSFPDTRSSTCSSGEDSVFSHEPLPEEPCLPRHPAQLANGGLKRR

[6] = target: Vascular endothelial growth factor receptor 2 (Homo sapiens, UniProt P35968)
Sequence of Vascular endothelial growth factor receptor 2 (P35968 whole entry): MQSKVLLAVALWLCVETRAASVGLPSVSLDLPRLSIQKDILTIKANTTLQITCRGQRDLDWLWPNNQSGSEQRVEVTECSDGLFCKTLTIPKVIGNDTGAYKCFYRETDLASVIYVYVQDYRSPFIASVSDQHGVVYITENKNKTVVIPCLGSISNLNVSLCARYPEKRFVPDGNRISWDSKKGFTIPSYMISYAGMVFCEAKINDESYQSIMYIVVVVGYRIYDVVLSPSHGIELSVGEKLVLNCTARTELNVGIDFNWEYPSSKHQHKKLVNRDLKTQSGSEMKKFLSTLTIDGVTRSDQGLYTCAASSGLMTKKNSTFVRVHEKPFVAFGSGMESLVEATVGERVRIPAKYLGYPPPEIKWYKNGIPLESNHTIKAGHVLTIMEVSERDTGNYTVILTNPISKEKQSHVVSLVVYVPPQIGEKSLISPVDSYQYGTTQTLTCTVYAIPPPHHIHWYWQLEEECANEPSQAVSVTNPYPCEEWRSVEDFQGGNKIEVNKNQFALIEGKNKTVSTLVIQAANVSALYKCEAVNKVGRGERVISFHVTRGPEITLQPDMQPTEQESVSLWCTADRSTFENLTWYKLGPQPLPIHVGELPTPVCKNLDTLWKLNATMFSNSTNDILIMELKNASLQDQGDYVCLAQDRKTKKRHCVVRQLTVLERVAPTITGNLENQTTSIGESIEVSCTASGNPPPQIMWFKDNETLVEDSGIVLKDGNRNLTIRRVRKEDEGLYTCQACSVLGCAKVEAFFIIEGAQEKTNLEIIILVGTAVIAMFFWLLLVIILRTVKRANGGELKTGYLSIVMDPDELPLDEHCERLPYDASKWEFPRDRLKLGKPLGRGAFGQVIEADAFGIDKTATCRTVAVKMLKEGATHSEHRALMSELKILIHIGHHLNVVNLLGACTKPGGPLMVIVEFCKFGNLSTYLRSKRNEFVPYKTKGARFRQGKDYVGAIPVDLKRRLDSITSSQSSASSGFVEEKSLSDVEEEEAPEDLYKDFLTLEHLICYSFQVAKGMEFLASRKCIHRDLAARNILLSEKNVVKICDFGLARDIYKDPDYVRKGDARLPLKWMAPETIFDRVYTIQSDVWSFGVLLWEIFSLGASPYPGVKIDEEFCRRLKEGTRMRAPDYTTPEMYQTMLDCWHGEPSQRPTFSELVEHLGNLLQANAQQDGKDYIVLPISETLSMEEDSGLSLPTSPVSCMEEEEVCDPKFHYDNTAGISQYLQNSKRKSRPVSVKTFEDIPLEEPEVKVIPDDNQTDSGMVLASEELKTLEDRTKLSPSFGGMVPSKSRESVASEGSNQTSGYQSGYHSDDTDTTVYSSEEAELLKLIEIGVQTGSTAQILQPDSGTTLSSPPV

Aurora kinase B = Aurora kinase B (Homo sapiens, UniProt Q96GD4)
Sequence of Aurora kinase B (Q96GD4 whole entry): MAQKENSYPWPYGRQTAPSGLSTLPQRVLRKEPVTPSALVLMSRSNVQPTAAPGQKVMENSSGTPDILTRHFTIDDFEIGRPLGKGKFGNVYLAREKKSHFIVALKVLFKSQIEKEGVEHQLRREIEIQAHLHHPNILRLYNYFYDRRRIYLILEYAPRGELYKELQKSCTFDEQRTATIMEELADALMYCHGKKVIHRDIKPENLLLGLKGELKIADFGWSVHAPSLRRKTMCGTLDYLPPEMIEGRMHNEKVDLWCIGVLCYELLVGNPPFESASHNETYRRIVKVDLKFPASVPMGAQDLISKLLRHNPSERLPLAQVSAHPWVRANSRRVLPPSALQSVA

[7] = target: Vascular endothelial growth factor receptor 1 (Homo sapiens, UniProt P17948);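 also: measured within a kinome-wide profiling panel, FLT1 as the panel member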
Sequence of Vascular endothelial growth factor receptor 1 (P17948 whole entry): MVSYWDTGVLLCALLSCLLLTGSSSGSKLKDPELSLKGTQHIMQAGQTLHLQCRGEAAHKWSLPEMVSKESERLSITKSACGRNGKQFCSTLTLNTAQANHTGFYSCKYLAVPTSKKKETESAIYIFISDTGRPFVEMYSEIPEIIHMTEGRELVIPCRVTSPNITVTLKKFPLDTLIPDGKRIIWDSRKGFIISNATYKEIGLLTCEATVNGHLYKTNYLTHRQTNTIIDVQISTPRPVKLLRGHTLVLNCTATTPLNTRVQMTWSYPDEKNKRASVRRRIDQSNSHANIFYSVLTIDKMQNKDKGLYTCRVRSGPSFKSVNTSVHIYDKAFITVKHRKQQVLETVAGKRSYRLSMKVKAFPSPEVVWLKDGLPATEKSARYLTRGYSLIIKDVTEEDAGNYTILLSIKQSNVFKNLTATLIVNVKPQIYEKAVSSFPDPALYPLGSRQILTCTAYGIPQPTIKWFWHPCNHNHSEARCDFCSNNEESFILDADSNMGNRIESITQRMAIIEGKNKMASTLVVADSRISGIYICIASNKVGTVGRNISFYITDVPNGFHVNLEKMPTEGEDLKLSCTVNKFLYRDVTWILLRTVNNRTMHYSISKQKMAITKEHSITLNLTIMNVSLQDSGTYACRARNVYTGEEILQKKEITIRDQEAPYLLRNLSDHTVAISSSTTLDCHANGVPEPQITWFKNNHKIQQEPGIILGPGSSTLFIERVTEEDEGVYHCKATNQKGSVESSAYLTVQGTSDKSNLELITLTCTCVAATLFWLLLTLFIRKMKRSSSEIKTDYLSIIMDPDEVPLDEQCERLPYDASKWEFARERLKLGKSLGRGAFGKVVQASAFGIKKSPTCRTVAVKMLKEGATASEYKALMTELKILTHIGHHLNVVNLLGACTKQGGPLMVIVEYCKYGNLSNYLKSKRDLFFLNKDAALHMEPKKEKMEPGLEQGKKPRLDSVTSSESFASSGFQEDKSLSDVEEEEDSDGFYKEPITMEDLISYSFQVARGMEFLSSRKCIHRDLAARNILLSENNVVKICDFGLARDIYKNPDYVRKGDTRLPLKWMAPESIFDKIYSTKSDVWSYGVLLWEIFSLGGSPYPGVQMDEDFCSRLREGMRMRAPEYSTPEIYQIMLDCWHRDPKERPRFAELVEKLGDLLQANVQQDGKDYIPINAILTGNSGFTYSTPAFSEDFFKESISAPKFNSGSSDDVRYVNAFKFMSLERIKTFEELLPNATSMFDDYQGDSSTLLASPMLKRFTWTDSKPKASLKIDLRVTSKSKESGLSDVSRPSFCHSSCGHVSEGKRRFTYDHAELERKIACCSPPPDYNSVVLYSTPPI

[8] = target: cAMP-dependent protein kinase catalytic subunit alpha (Homo sapiens, UniProt P17612)
[9] = target: Dual specificity tyrosine-phosphorylation-regulated kinase 1A (Homo sapiens, UniProt Q13627);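 also: measured against DYRK1A as one member of a broad kinome profiling panel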

SMILES	IC50 [1]	IC50 [2]	Ki [3]	Ki [4]	Ki [5]	Ki [6]	Ki (Aurora kinase B)	Ki [7]	Ki [8]	Ki [9]
CCN(CC)CCOc1ccc2c(c1)C(=NNC(=O)c1ccccn1)c1cc(OCCN(CC)CC)ccc1-2	31300 nM (active)									
O=C(NC1=C(Nc2ccc(F)cc2)C(=O)c2ccccc2C1=O)c1ccc(Cl)cc1		24300 nM (active)								
O=C(O)c1ccc2c(c1)[C@@H]1C=CC[C@@H]1[C@H](c1ccccn1)N2	360000 nM (active)									
COc1cc2cc(NC(C)=O)cc(NCc3ccccc3)c2cc1OC	49600 nM (active)									
Oc1nc(Nc2ccc(F)cc2)cc2ccccc12		7050 nM (active)								
CN(C)c1cc(N/N=C\c2ccccc2)nc(N(C)C)n1		77600 nM (active)								
O=C1Nc2cc(-c3ccc(O)cc3)ccc2C1=Cc1ccc[nH]1			1260 nM (active)	2000 nM (active)	1260 nM (active)	12.6 nM (active)	20 nM (active)	20 nM (active)	> 1260 nM (inactive)	> 2000 nM (inactive)
NC(COc1cncc(-c2ccc3c(c2)C(=Cc2ccc[nH]2)C(=O)N3)c1)Cc1ccccc1 (stereo not given)			316 nM (active)	25.1 nM (active)	126 nM (active)	0.631 nM (active)	39.8 nM (active)	0.631 nM (active)	1.26 nM (active)	0.398 nM (active)
O=C1Cc2cc(-c3ccccc3)cnc2N1			79400 nM (active)	20000 nM (active)	50100 nM (active)	31600 nM (active)	31600 nM (active)	79400 nM (active)	> 50100 nM (inactive)	39800 nM (active)
